Data set [1] is described as follows: in-vitro protein binding: free fraction / fraction unbound, matrix and species not given. In kind it is in vitro ADME. As to the method: (§1) We have adapted a previously reported cyclooxygenase enzymatic assay utilizing LCMS quantification of PGE2 as the product of COX-1 and COX2 catalyzed conversion of arachidonic acid to evaluate the binding properties of newly synthesized ligands [Cao, 2011]. These optimized and miniaturized (384-well plates) LCMS-based COX-1 and COX2 enzymatic assays enabled us to quickly evaluate newly synthesized ligands for COX2 binding affinity and selectivity vs COX-1. Using a shorter ligand-enzyme incubation time in the LCMS assay (2 minutes vs 10 minutes) also permitted us to prioritize ligands with faster binding kinetics. Considering the relatively slow on-rate kinetics of known coxibs, due to their 3-step binding mechanism [Marnett, 2009], we believe that optimizing this critical parameter will be key to the successful development of a COX2 PET tracer. Using these enzymatic assays, we have evaluated>200 newly synthesized ligands against COX2 and >20 ligands against COX-1. Another critical property necessary for a good PET radiotracer is to have low non-specific binding (NSB) to increase the free fraction and maximize the signal to noise ratio. This property can be evaluated using in-vitro protein binding assays, and we have now evaluated>50 newly synthesized ligands in mouse, rat and human plasma protein binding (PPB) assays as well as >15 ligands in a mouse brain protein binding (BPB) assay.

Data set [2] has as its target T1, human recombinant COX2 (hCOX2) (UniProt P35354).
T1 sequence (P35354 1-604): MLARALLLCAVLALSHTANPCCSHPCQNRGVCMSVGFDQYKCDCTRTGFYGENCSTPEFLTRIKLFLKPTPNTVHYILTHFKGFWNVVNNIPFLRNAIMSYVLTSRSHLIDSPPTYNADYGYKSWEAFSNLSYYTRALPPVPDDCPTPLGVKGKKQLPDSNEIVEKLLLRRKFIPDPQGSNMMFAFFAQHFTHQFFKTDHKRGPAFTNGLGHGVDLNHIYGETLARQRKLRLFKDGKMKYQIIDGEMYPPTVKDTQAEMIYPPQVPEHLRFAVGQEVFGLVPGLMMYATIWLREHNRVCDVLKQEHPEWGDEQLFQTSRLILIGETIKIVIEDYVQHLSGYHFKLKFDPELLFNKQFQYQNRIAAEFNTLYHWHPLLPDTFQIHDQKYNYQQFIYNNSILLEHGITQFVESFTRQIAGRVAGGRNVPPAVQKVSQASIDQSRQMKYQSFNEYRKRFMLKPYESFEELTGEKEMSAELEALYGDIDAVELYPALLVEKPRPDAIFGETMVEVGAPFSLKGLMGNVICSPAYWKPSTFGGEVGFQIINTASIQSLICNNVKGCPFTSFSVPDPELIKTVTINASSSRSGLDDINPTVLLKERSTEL
Description: LCMS-based COX2 enzymatic inhibition assay (PGE2 quantification). In kind it is biochemical. Also on record: improvement in potency; other: COX2 potency relative to MC1 / earlier ligand; comparator not always stated; other: vs MC1 (MC-1). The following applies: COX2 potency relative to MC1 / earlier ligand; comparator not always stated. As to the method: as §1
Ovine COX-1 (oCOX-1), ovine COX2 (oCOX2), human recombinant COX2 (hCOX2), arachidonic acid, PGE2, d4-PGD2, and […] (labeled with deuterium atoms at positions 3 and 4) were purchased from Cayman Chemicals (Ann Arbor, Mich.). The cofactors (−)epinephrine and hematin, and the COX inhibitors indomethacin, resveratrol and diclofenac were purchased from Sigma-Aldrich (St. Louis, Mo.). Celecoxib was purchased from 3B PharmaChem International (Wuhan, China). All organic solvents were HPLC grade or better and were purchased from Thermo Fisher (Hanover Park, Ill.). Formic acid was purchased from EMD Chemicals (San Diego, Calif.). Purified water was prepared by using a Millipore Milli-Q purification system (Millipore, Billerica, Mass.). All other chemicals and solvents were ACS reagent grade, unless stated otherwise.
In an Eppendorf tube, 146 μL of 100 mM Tris.HCl (pH 8.0) buffer, 2 μL of 100 μM hematin (co-factor) and 10 μL of 40 mM L-epinephrine (co-factor) were mixed at room temperature. […]
The concentration of PGE2 in each sample was measured using LC-MS-MS, and the percent of COX inhibition by each test solution was determined by comparing the amount of PGE2 produced in the experiment with that produced in the negative control incubation. The formation of PGD2 was measured for quality control purposes, since the levels of PGD2 should be proportional to those of PGE2. […]

In data set [3] the target is T1, human recombinant COX2 (hCOX2). Described as above. In kind it is biochemical. Also on record: COX2 2 minutes pge2/pge2d4 area ratio Avg; other: 2 minutes; readout pge2/pge2d4 area ratio; average; COX2 2 minutes pge2/pge2d4 area ratio Avg; LLE; average LLE; COX2 2 minutes pge2 area (counts) Avg; readout pge2 area (counts); other: 2 min; "ovine COX2 (oCOX2), human recombinant COX2 (hCOX2)". The following applies: 2 minutes; for IC50: average. An outline of the steps: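 PGE2 formed from arachidonic acid (final 5 μM, 2 min) was measured by LC-MS-MS against DMSO controls. Enzyme (oCOX-1 0.1 μg or hCOX2 0.2 μg) with hematin/epinephrine cofactors at pH 8.0 was given 10 min at 37 °C with compound first. Twelve-point curves run three times gave IC50.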

Data set [4] concerns the target T2, COX2 (Rattus norvegicus, UniProt P35355).
T2 construct: in-vitro autoradiography in rat brain slices; from tissue; host or cells: rat brain slices
T2 sequence (P35355 18-604): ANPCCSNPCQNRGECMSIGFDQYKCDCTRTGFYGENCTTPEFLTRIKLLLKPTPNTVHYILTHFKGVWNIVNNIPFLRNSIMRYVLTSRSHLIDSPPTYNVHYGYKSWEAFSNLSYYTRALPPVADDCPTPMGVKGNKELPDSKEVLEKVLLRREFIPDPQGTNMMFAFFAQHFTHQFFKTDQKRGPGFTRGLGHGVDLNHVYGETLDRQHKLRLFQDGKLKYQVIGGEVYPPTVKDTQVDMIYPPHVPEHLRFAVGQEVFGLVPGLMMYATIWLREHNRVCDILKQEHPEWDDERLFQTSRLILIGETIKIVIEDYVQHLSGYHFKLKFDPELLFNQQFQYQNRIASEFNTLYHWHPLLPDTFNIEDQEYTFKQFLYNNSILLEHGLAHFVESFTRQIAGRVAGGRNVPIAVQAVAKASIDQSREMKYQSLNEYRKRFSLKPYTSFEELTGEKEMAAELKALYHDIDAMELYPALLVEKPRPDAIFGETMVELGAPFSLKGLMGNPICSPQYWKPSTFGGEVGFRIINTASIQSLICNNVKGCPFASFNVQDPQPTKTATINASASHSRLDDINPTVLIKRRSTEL
Description: in-vitro autoradiography in rat brain slices (self-block). In kind it is binding. The following applies: rat brain slices in vitro autoradiography, self-block, compared to earlier tracers. An excerpt: Three ligands have been evaluated with in-vitro autoradiography in rat brain slices. Radiolabeling was accomplished via methylation of either a sulfinate precursor ([^11C]Rofecoxib), hydroxyl precursor ([^11C]MC1) or thiol precursor ([^11C]98) using [^11C]-methyl iodide and offers chemical flexibility for radiolabeling of future candidates. […] This translated into a ˜2-fold increase in COX2 specific binding in a rat brain slice in-vitro autoradiography. […] These properties enable us to better understand the contribution of potency and free fraction to the ligand's specific binding.
Three newly synthesized COX2 ligands were successfully radiolabeled using this strategy and first evaluated by in-vitro autoradiography in rat brain slices using self-block experiments (FIG. 5). […] [^11C]36 was also evaluated for specific binding using self-block experiments in human post-mortem brain tissues (globus pallidus) from three Huntington's disease (HD) patients (FIG. 6). COX2 protein levels were quantified using immunostaining and defined as high, medium and low, respectively.

For data set [5], the target named is T2, COX2. Description: rat in-vivo PET imaging (brain pharmacokinetics, self-block).
Data set [6] is described as follows: PET imaging in non-human primate (baboon). In kind it is in vivo. The text has this: This ideal pharmacokinetic profile in non-human primate positions these two optimized lead radiotracers for further evaluation using kinetic modeling with an arterial plasma input function and correction for plasma fraction unbound to obtain total volume of distribution (VT), the gold standard measure for PET quantification.

Entries after “also recorded” stand apart in the source; their conditions may differ. Like-named read-outs stand apart in the source and are kept apart here.

The term fraction unbound denotes free concentration divided by total concentration. A low value points to little free substance. In turn, `COc1ncc(-c2ccc(S(C)(=O)=O)cc2)nc1NCc1cccs1` [Compound 116] displayed a fraction unbound in data set [1] of 0.025. Moreover, the improvement in potency in data set [2] is on record as approximately 6 fold. Besides, the “COX2 2 minutes pge2/pge2d4 area ratio Avg. LLE” value in data set [3] (readout pge2/pge2d4 area ratio, average LLE) is 4.506. Further, the IC50 came to 108 nM in data set [3] (readout pge2/pge2d4 area ratio, read-out: COX2 2 minutes pge2/pge2d4 area ratio Avg. IC50) and 99.9 nM in data set [3] (readout pge2 area (counts), read-out: COX2 2 minutes pge2 area (counts) Avg. IC50). Besides, the “COX2 2 minutes pge2 area (counts) Avg. LLE” value in data set [3] (readout pge2 area (counts), average LLE) came to 4.564.
In the case of `COc1cc(OCc2cccs2)nc(-c2ccc(S(C)(=O)=O)cc2)n1` [Compound 331], the improvement in potency in data set [2] was 10 fold.
`CS(=O)(=O)c1ccc(-c2cccc(NCc3ccoc3)n2)cc1` [[^11C]47]: the specific binding result at COX2 [4] is listed as “significantly increased specific binding”. For the same compound, the “specific binding in vivo” value at COX2 [5] (rat PET, self-block experiment, between 30-60 minutes) is recorded as “modest but consistent specific binding”. At COX2 [5] (rat in-vivo PET imaging), the “brain pharmacokinetic (brain uptake and clearance)” value was “high and rapid brain uptake followed by fast clearance”. For the same compound, the “brain uptake and clearance” value in data set [6] is “high, fast and homogeneous brain uptake along with fast clearance; also recorded: high, rapid and homogeneous brain uptake followed by fast clearance”.

(Values after patent publication US20220348590A1, “CYCLOOXYGENASE-2 INHIBITORS AND USES THEREOF” (The Board Institute, Inc., priority 2019, published 2022).)
